In the supplement of paper PMC10307832:

The cell lines below were run with COc1cc([C@@H]2c3cc4c(cc3[C@@H](O[C@@H]3O[C@@H]5CO[C@@H](C)O[C@H]5[C@H](O)[C@H]3O)[C@H]3COC(=O)[C@H]23)OCO4)cc(OC)c1O [Etoposide] + CS(=O)(=O)N1CCN(Cc2cc3nc(-c4cccc5[nH]ncc45)nc(N4CCOCC4)c3s2)CC1 [Pictilisib] (partner 1 µM) (assay: relative viability (nuclei count vs DMSO), 5 days (fraction); higher = more cells survive). Details: first compound 0.03162 µM.
Outline: (§1)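 Nuclei were stained with Hoechst during a one-step fixation (final 0.05% Triton X-100, 1% formaldehyde, 1 ug/ml Hoechst) carried out 5 days after dosing, then counted on 4× images. The cells, lung cancer lines in 1536-well plates, had been dosed by pin tool the day after seeding with one drug alone or a fixed anchor-drug dose plus five library-drug doses (not always all listed) in √10 steps. Relative viability is the nuclei count in treated wells divided by that in vehicle wells, and each value is the median of duplicate plates.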

Row | Cell Line | relative viability
1 | H3255 | 0.499
2 | COR-L23 | 0.726
3 | COR-L 105 | 0.395
4 | IA-LM | 0.31
5 | A549 | 0.432
6 | NCI-H2009 | 0.898
7 | NCI-H520 | 0.307
8 | SW 1573 | 0.475
9 | NCI-H1299 | 0.672
10 | CAL-12T | 0.438
11 | NCI-H2023 | 0.255
12 | NCI-H1563 | 0.653
13 | SK-LU-1 | 0.597
14 | NCI-H661 | 0.453

Same assay, conditions: first compound 0.1 µM

Row | Cell Line | relative viability
15 | NCI-H838 | 0.284
16 | NCI-H1650 | 0.378
17 | EBC-1 | 0.218
18 | NCI-H1703 | 0.269
19 | NCI-H1993 | 0.806
20 | NCI-H2087 | 0.551
21 | PC-14 | 0.543
22 | LCLC-103H | 0.527
23 | NCI-H2228 | 0.167
24 | EMC-BAC-2 | 0.413
25 | NCI-H2085 | 0.324
26 | Calu-6 | 0.764
27 | HCC-366 | 0.0748
28 | NCI-H1666 | 0.325
29 | NCI-H647 | 0.257
30 | LK-2 | 0.407

Row | Cell Line | relative viability
31 | NCI-H2126 | 0.419
32 | SK-MES-1 | 0.301
33 | H3255 | 0.381
34 | COR-L23 | 0.401
35 | COR-L 105 | 0.337
36 | IA-LM | 0.236
37 | A549 | 0.221
38 | NCI-H2009 | 0.54
39 | NCI-H520 | 0.27
40 | SW 1573 | 0.338
41 | NCI-H1299 | 0.641
42 | CAL-12T | 0.323
43 | NCI-H2023 | 0.145
44 | NCI-H1563 | 0.61
45 | SK-LU-1 | 0.308
46 | NCI-H661 | 0.309

Same assay, conditions: first compound 0.3162 µM

Row | Cell Line | relative viability
47 | NCI-H838 | 0.329
48 | NCI-H1650 | 0.196
49 | EBC-1 | 0.287
50 | NCI-H1703 | 0.214
51 | NCI-H1993 | 0.915
52 | NCI-H2087 | 0.543
53 | PC-14 | 0.371
54 | LCLC-103H | 0.679
55 | NCI-H596 | 0.375
56 | NCI-H2228 | 0.229
57 | EMC-BAC-2 | 0.27
58 | NCI-H2085 | 0.433
59 | Calu-6 | 0.457
60 | HCC-366 | 0.0491
61 | NCI-H1666 | 0.21
62 | NCI-H647 | 0.208
63 | LK-2 | 0.476

Row | Cell Line | relative viability
64 | NCI-H2126 | 0.392
65 | SK-MES-1 | 0.242
66 | H3255 | 0.411
67 | COR-L23 | 0.418
68 | COR-L 105 | 0.327
69 | IA-LM | 0.282
70 | A549 | 0.0914
71 | NCI-H2009 | 0.543
72 | NCI-H520 | 0.277
73 | SW 1573 | 0.197
74 | NCI-H1299 | 0.644
75 | CAL-12T | 0.391
76 | NCI-H2023 | 0.124
77 | NCI-H1563 | 0.501
78 | SK-LU-1 | 0.277
79 | NCI-H661 | 0.32

Same assay, conditions: first compound 1 µM

Row | Cell Line | relative viability
80 | NCI-H838 | 0.186
81 | NCI-H1650 | 0.139
82 | EBC-1 | 0.156
83 | NCI-H1703 | 0.171
84 | NCI-H1993 | 0.66
85 | NCI-H2087 | 0.235
86 | PC-14 | 0.289
87 | LCLC-103H | 0.519
88 | NCI-H596 | 0.36
89 | NCI-H2228 | 0.109
90 | EMC-BAC-2 | 0.164
91 | NCI-H2085 | 0.287
92 | Calu-6 | 0.25
93 | HCC-366 | 0.0362
94 | NCI-H1666 | 0.205
95 | NCI-H647 | 0.0798
96 | LK-2 | 0.26

Row | Cell Line | relative viability
97 | NCI-H2126 | 0.332
98 | SK-MES-1 | 0.167
99 | H3255 | 0.298
100 | COR-L23 | 0.122
101 | COR-L 105 | 0.335
102 | IA-LM | 0.138
103 | A549 | 0.0659
104 | NCI-H2009 | 0.236
105 | NCI-H520 | 0.223
106 | SW 1573 | 0.117
107 | NCI-H1299 | 0.332
108 | CAL-12T | 0.258
109 | NCI-H2023 | 0.0878
110 | NCI-H1563 | 0.555
111 | SK-LU-1 | 0.174
112 | NCI-H661 | 0.26

The cell lines below were run with CC1=C(N=C(N=C1N)[C@H](CC(=O)N)NC[C@@H](C(=O)N)N)C(=O)N[C@@H]([C@H](C2=CN=CN2)OC3C(C(C(C(O3)CO)O)O)OC4C(C(C(C(O4)CO)O)OC(=O)N)O)C(=O)N[C@H](C)[C@H]([C@H](C)C(=O)N[C@@H]([C@@H](C)O)C(=O)NCCC5=NC(=CS5)C6=NC(=CS6)C(=O)NCCC[S+](C)C)O [Bleomycin] + O=C(c1cc(Cc2n[nH]c(=O)c3ccccc23)ccc1F)N1CCN(C(=O)C2CC2)CC1 [Olaparib] (partner 8 µM) in the same assay as above. Details: first compound 0.01 µM; main component drawn.
Outline: as §1

Row | Cell Line | relative viability
113 | NCI-H522 | 0.498
114 | NCI-H838 | 0.432
115 | NCI-H1650 | 0.285
116 | EBC-1 | 0.604
117 | NCI-H1703 | 0.55
118 | NCI-H1993 | 0.763
119 | NCI-H2087 | 0.366
120 | PC-14 | 0.114
121 | LCLC-103H | 0.717
122 | NCI-H596 | 0.599
123 | NCI-H2228 | 0.443
124 | EMC-BAC-2 | 0.35
125 | NCI-H2085 | 0.665
126 | Calu-6 | 0.375
127 | HCC-366 | 0.157
128 | NCI-H1666 | 0.65
129 | NCI-H647 | 0.161

Row | Cell Line | relative viability
130 | LK-2 | 0.369
131 | NCI-H2126 | 0.863
132 | NCI-H2342 | 0.377
133 | SK-MES-1 | 0.528
134 | H3255 | 0.491
135 | COR-L23 | 0.253
136 | COR-L 105 | 0.614
137 | IA-LM | 0.681
138 | A549 | 0.25
139 | SW 900 | 0.577
140 | NCI-H1648 | 0.757
141 | NCI-H2009 | 0.586
142 | NCI-H520 | 0.339
143 | SW 1573 | 0.291
144 | NCI-H1299 | 0.819
145 | CAL-12T | 0.416
146 | NCI-H2023 | 0.273
